Experiments:
Experiment in all cases: relative viability (nuclei count vs DMSO), 5 days (fraction); higher = more cells survive
[1] = compound: CC1CC(=O)N(C2=CN=C(N=C2N1C3CCCC3)NC4=C(C=C(C=C4)C(=O)NC5CCN(CC5)C)OC)C [NPK76-II-72-1] + Cc1nc(Nc2ncc(C(=O)Nc3c(C)cccc3Cl)s2)cc(N2CCN(CCO)CC2)n1 [Dasatinib] (partner 0.075 µM)
Outline: (§1)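 The day after seeding in 1536-well plates, lung cancer cell lines were treated by pin tool with a single drug, or with a fixed anchor-drug dose together with five library-drug doses (not always all listed) in √10 steps. After 5 days, a combined fix-and-stain solution (final 0.05% Triton X-100, 1% formaldehyde, 1 ug/ml Hoechst) was added. Nuclei counted on 4× images gave relative viability as treated counts over vehicle counts, reported as the median of duplicate plates.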

[2] = compound: CC[C@@H]1C(=O)N(C)c2cnc(Nc3ccc(C(=O)NC4CCN(C)CC4)cc3OC)nc2N1C1CCCC1 [BI-2536] + C[C@@H](Oc1cc(-c2cnn(C3CCNCC3)c2)cnc1N)c1c(Cl)ccc(F)c1Cl [Crizotinib] (partner 1 µM)
Outline: as §1

[3] = compound: CC[C@@H]1C(=O)N(C)c2cnc(Nc3ccc(C(=O)NC4CCN(C)CC4)cc3OC)nc2N1C1CCCC1 [BI-2536] + O=C(c1cc(Cc2n[nH]c(=O)c3ccccc23)ccc1F)N1CCN(C(=O)C2CC2)CC1 [Olaparib] (partner 8 µM)
Outline: as §1

[4] = compound: CC1CC(=O)N(C2=CN=C(N=C2N1C3CCCC3)NC4=C(C=C(C=C4)C(=O)NC5CCN(CC5)C)OC)C [NPK76-II-72-1] + CS(=O)(=O)CCNCc1ccc(-c2ccc3ncnc(Nc4ccc(OCc5cccc(F)c5)c(Cl)c4)c3c2)o1 [Lapatinib] (partner 2 µM)
Outline: as §1

| Cell Line | relative viability ([1]; first compound 0.01 µM) | relative viability ([1]; first compound 0.03162 µM) | relative viability ([1]; first compound 0.1 µM) | relative viability ([1]; first compound 0.3162 µM) | relative viability ([1]; first compound 1 µM) | relative viability ([2]; first compound 0.01 µM) | relative viability ([2]; first compound 0.03162 µM) | relative viability ([2]; first compound 0.1 µM) | relative viability ([2]; first compound 0.3162 µM) | relative viability ([2]; first compound 1 µM) | relative viability ([3]; first compound 0.01 µM) | relative viability ([3]; first compound 0.03162 µM) | relative viability ([3]; first compound 0.1 µM) | relative viability ([3]; first compound 0.3162 µM) | relative viability ([3]; first compound 1 µM) | relative viability ([4]; first compound 0.01 µM) | relative viability ([4]; first compound 0.03162 µM) | relative viability ([4]; first compound 0.1 µM) | relative viability ([4]; first compound 0.3162 µM) | relative viability ([4]; first compound 1 µM) |
| --- | --- | --- | --- | --- | --- | --- | --- | --- | --- | --- | --- | --- | --- | --- | --- | --- | --- | --- | --- | --- |
| NCI-H2023 | 0.511 | 0.63 | 0.605 | 0.583 | 0.603 | 0.582 | 0.493 | 0.346 | 0.0851 | 0.0743 | 0.426 | 0.338 | 0.13 | 0.0876 | 0.0937 | 0.813 | 1.06 | 1.13 | 0.878 | 1.02 |
| LC-2-ad | 0.569 | 0.862 | 0.485 | 0.438 | 0.791 | 0.41 | 0.272 | 0.205 | 0.217 | 0.286 | 0.705 | 0.621 | 0.24 | 0.205 | 0.205 | 0.916 | 1.02 | 0.976 | 1.04 | 1.06 |
| NCI-H1703 |  |  |  |  |  | 0.626 |  | 0.173 | 0.131 | 0.0732 | 0.426 | 0.315 | 0.209 | 0.102 | 0.111 | 1.16 | 1.2 | 1.21 | 1.05 | 1.2 |
| NCI-H1437 | 0.416 | 0.388 | 0.321 | 0.33 | 0.417 | 0.812 | 0.593 | 0.418 | 0.117 | 0.116 | 0.6 | 0.494 | 0.339 | 0.23 | 0.247 | 0.769 | 0.884 | 0.743 | 0.716 | 0.818 |
| Calu-6 |  |  |  |  |  | 0.713 | 0.4 | 0.273 | 0.113 | 0.102 | 0.533 | 0.524 | 0.243 | 0.0982 | 0.0892 | 1.01 | 1.12 | 1.08 | 1.03 | 1.17 |
| EBC-1 |  |  |  |  |  | 0.194 | 0.14 | 0.175 | 0.141 | 0.145 | 0.616 | 0.612 | 0.377 | 0.139 | 0.133 | 0.193 | 0.182 | 0.218 | 0.229 | 0.218 |
| NCI-H1623 | 0.562 | 0.522 | 0.554 | 0.401 | 0.545 |  |  |  |  |  |  |  |  |  |  |  |  |  |  |  |
| NCI-H2342 | 0.345 | 0.301 | 0.328 | 0.262 | 0.346 |  |  |  |  |  |  | 0.424 | 0.367 | 0.319 | 0.26 |  |  |  |  |  |
| SW 900 | 0.496 | 0.574 | 0.378 | 0.78 | 0.572 |  |  |  |  |  | 0.804 | 1.05 | 0.691 | 0.215 | 0.153 |  |  |  |  |  |
| NCI-H1563 | 0.465 | 0.416 | 0.469 | 0.461 | 0.425 | 0.902 | 0.817 | 0.822 | 0.621 | 0.561 |  |  |  |  |  | 0.976 | 1.03 | 0.946 | 0.942 | 1.02 |
| NCI-H1793 | 0.328 | 0.432 | 0.412 | 0.383 | 0.386 |  |  |  |  |  | 0.674 | 0.767 | 0.203 | 0.152 | 0.157 | 0.64 | 0.91 | 0.823 | 0.503 | 0.751 |
| NCI-H1299 |  |  |  |  |  | 0.946 | 0.808 | 0.663 | 0.266 | 0.224 | 1.01 | 0.907 | 0.828 | 0.237 | 0.221 | 0.949 | 1.01 | 0.957 | 0.961 | 0.954 |
| NCI-H1395 | 0.433 | 0.36 | 0.424 | 0.417 | 0.369 |  |  |  |  |  | 0.4 | 0.396 | 0.329 | 0.364 | 0.355 | 1.1 | 1.11 | 1.09 | 1.03 | 1.07 |
| NCI-H522 | 0.77 | 0.887 | 1.09 | 0.86 | 0.828 |  |  |  |  |  | 0.655 | 0.594 | 0.689 | 0.364 | 0.316 |  |  |  |  |  |
| A549 |  |  |  |  |  | 0.727 | 0.565 | 0.119 | 0.0589 | 0.0294 | 0.267 | 0.444 | 0.125 | 0.0214 | 0.0368 | 0.881 | 1.11 | 0.963 | 0.869 | 1.07 |
| NCI-H1648 |  |  |  |  |  |  |  |  |  |  | 0.794 | 0.887 | 0.545 | 0.23 | 0.275 |  |  |  |  |  |
| IA-LM |  |  |  |  |  | 0.771 | 0.667 | 0.125 | 0.108 | 0.058 | 0.763 | 0.752 | 0.402 | 0.101 | 0.102 | 0.786 | 0.877 | 0.804 | 0.785 | 1.03 |
| ChaGo-K-1 | 0.577 | 0.624 | 0.505 | 0.53 | 0.596 | 1.05 | 0.693 | 0.704 | 0.299 | 0.303 | 0.414 | 0.308 | 0.265 | 0.164 | 0.15 |  |  |  |  |  |
| HCC-44 |  |  |  |  |  | 0.786 | 0.703 | 0.444 | 0.139 | 0.0857 | 1.05 | 1 | 0.952 | 0.378 | 0.33 | 0.983 | 0.991 | 0.935 | 0.937 | 1 |

From the supplement of paper PMC10307832
